Source: patent US6780866B2, “Analgesic composition and method” (priority 2001, dated 2004)
Several values for one entry are separate records, joined by “and”; a condition that tells them apart may be missing. Equal values may be shown once.

Legend:
[1] = system: formalin-induced inflammatory pain; design: species or system Wistar male rats; details: rat, in vivo
[2] = system: heat-induced tail-flick (nociceptive pain); design: species or system Kunming mice; details: mouse, in vivo
Protocol: 320 screened mice, half male and half female, were randomly divided into 16 groups. They were not given food, only water 12 hours prior to dosing.
The heat tail flick analgesia meter includes a heat source consisting of a 12 V, 50 watt, 8.75 mm projector lamp. The light beam from the heat source was focused and directed to a point on the tail of a mouse being tested, having a distance of 1-2 mm plus ⅓ of the tail length to the tail end.
The test drugs were given intramuscularly. […] The tail-flick latencies, which were assessed in response to a noxious heat stimulus, i.e., the response time from applying radiant heat on the dorsal surface of the tail to the occurrence of tail flick, were measured and recorded at 15, 30, 45, 60, 90, 120, 150, 180 min. after dosing. For each measurement, three readings were made consecutively one minute apart, and their average was recorded as the latency. The testing on one animal would be terminated when tail-flick was not observed within 20 seconds, and the latency would be recorded as 20 seconds. The pain inhibition rate was calculated according to the following formula for the purpose of assessing the analgesia potency: […]
The results were processed with SPSS, a statistical software provided by SPSS, Inc. of Chicago, Ill., USA. Half effective dose (ED50) and half inhibition dose (ID50) were calculated with the probit method.

[3] = system: formalin-induced inflammatory pain; details: rat, in vivo; cited from earlier work
pain = details: in vivo; cited from earlier work

| SMILES | ID50 of morphine [1] | ED95 of morphine [2] | ID50 of morphine [2] | inhibition [3] | Inhibition rate (%) ([1]; 3 mg/kg) | Pain reaction score ([1]; 3 mg/kg) | analgesic potency relative to morphine (pain) | Inhibition rate (%) ([2]; 3 mg/kg) | Latency after dosing ([2]; 3 mg/kg) |
| --- | --- | --- | --- | --- | --- | --- | --- | --- | --- |
| CN1CC[C@]23c4c5ccc(O)c4O[C@H]2[C@@H](O)C=C[C@H]3[C@H]1C5.Cl [Morphine, Morphine hydrochloride] | 2.30 mg/kg | 0.77 | 0.33 mg/kg | – | – | – | – | – | – |
| N=C1NC(O)C2C3OC4(O)OC(C(O)C2(N1)C4O)C3(O)CO (stereo not drawn) [TTX, octahydro-12-(hydroxymethyl)-2-imino-5,9:7,10a-dimethano-10aH-[1,3]dioxocino[6,5-d]pyrimidine-4,7,10,11,12-pentol] | – | – | – | 71.7% | 32.9% and 11.6% | 169.1 ± 47.2 and 223.0 ± 58.3 | about 3,000 times | 5.44% and 12.06% | 5.88 ± 1.00 and 6.04 ± 0.76 |
